For this assay, the target named is T1, Aurora A (Homo sapiens, UniProt O14965).
T1 construct: C-terminally Histidine4 (His4)-tagged Aurora A full-length protein; His4 (C)
T1 sequence (O14965 1-403): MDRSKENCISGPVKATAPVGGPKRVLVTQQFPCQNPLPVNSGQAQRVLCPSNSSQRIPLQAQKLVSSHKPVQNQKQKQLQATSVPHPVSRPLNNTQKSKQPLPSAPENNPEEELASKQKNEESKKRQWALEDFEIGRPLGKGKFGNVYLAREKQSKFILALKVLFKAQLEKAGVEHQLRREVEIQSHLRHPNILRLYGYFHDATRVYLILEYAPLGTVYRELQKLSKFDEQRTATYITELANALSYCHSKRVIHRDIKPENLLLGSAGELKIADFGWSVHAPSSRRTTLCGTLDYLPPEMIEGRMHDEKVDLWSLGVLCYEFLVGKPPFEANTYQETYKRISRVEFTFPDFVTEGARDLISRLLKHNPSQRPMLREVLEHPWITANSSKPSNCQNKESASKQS
The assay can be described thus: IC50 determination for inhibitors of Aurora A (96 MTP-ELISA). In kind it is biochemical. The settings on record: His4-tagged full-length Aurora A 250 ng/ml, PKB-GSK2 200 nM, ATP 4 μM, 90 min room temperature, read-out: IC50 Aurora A kinase inhibition. As for the experimental part:
Aurora A is a serine threonine kinase involved in spindle assembly and chromosome segregation. The assay is a typically ELISA-type assay where biotinylated substrate (PKB-GSK2) is phosphorylated. Phosphorylation is detected by peroxidase (POD) labelled polyclonal antibody (PAK<M-Ig>S-IgG-POD) and phosphopeptide monoclonal antibody (Mab) (MAK<P-GSK>M-27E5-IgG). The assay is validated for IC50-determination.
Assay plates: 96-well polystyrene plates, streptavidin-coated,
Samples: 10 mM in dimethylsulfoxide (DMSO)
Aurora A-His-4: C-terminally Histidine4 (His4)-tagged Aurora A full-length protein, stock solution 0.7 mg/ml, final conc.: 250 ng/ml
PKB-GSK2: biotinylated peptide derived from human GSK3-alpha sequence (Biotin-SGRARTSSFAEPGG-CONH2), stock solution 600 μM, final conc.: 200 nM
PAK<M-Ig>S-IgG-POD: Anti-mouse IgG, horse radish peroxidase(HRP)-linked Antibody, diluted in 3% BSA/PBS-T (1:10000), (Cell Signaling, Cat. No.: 7076)
MAK<P-GSK>M-27E5-IgG: Phospho-GSK-3-alpha (Ser 21) (27E5) Monoclonal Antibody, stock solution 1.85 mg/ml, diluted in 3% BSA/PBS-T (1:6000), final conc.: 0.31 μg/ml, (Cell Signaling, Cat. No.: 9337B)
ATP: Adenosine-5′-triphosphate 1 mM, diluted in kinase buffer, (Roche Diagnostics GmbH, Cat. No.: 127531-001,), final conc.: 4 μM
TRIS: 2-Amino-2-hydroxymethyl-1,3-propoanediol (“tris-(hydroxymethyl)-aminomethane”) (MERCK, Cat. No.: 108382.2500)
BSA: Bovine Serum Albumin Fraction V, fatty acid free (Roche Diagnostics GmbH, Cat. No. 9100221)
EDTA Titriplex III (di-Sodium-EDTA di-Hydrate), 120 mM, (MERCK, Cat. No.: 1.08418.1000)
ABTS buffer: ABTS (2,2′-azino-bis(3-ethylbenzthiazoline-6-sulfonic acid)) 16.7 mg/ml (Roche Diagnostics GmbH, Cat. No.: 1204530) • ABTS tablets: dissolve one ABTS tablet in 50 ml of working solution (ABTS buffer) (Roche Diagnostics GmbH, Cat. No.: 1112422 ) • Tween 20: Polysorbat 20 (Roche Diagnostics GmbH, Cat. No.: 10006394-001) • DTT: 1,4-Dithiothreitol (Roche Diagnostics GmbH, Cat. No.: 197777) • MgCl2×6H2O MERCK, Cat. No.: 105833.1000 • Kinase buffer: 50 mM TRIS, 10 mM MgCl2, 1 mM DTT, 0.1% Tween 20, pH 7.8 PBS-T (=Wash buffer) (PBS-T)10 g/l PBS(Phosphate buffered saline) with 0.033% Tween 20 • 3% BSA/PBS-T: 3% BSA dissolved in PBS-T Method
This assay is performed in 96-well format for IC50 determination with 5 samples (each with 8 concentrations by twofold testing), 100 μl incubation volume and the following plate layout:
S samples, with ATP, 1% DMSO, final conc.: a=100 μM, b=20 μM, c=4 μM, d=0.8 μM, e=0.16 μM, f=0.032 μM, g=0.0064 μM, h=0.00128 μM Step/Action • (1) Sample preparation: add 24 μl per well samples (descending sequence) diluted in kinase buffer to assay plate (final conc. for DMSO 1%). • 2. Add directly 16 μl Aurora-A-his-4 diluted in kinase buffer to assay plate. • 3. Add directly 40 μl per well PKB-GSK2/ATP mixture to assay plate, (final conc.: Aurora A=250 ng/ml, GSK2=200 nM, ATP=4 μM). Negative control: without ATP. • 4. Incubate assay plate for exactly 90 min at room temperature. • 5. Stop reaction by adding 20 μl EDTA in all wells. • 6. Wash assay plate 3× with 200 μl washing buffer per well. • 7. Add 100 μl MAK<P-GSK>M27E5-IgG (1:10000) and PAK<M-Ig>S-IgG-POD (1:6000) dissolved in 3% BSA/PBS-T to assay plate per well. • 8. Incubate assay plate for 60 min at room temperature. • 9. Wash assay plate 3× with 200 μl washing buffer per well • 10. Add 100 μl ABTS solution to assay plate per well, incubate for approx. 4 min at RT on MTP shaker. • 11. Measure absorption at 405/492 nm. • 12. Calculate % inhibition as: (1−(Esample−ENC)/(EPC−ENC))×100 1)
13. Calculate IC50 using a non-linear curve fit (XLfit software (ID Business Solution Ltd., Guilford, Surrey, UK))

One may read the IC50 as the concentration that gives 50% inhibition. For `CC(C)N1C(=O)C(C)(C)c2cc3nc(-c4n[nH]c5ccccc45)[nH]c3cc21` [Example 6, 2-(1H-indazol-3-yl)-5-isopropyl-7,7-dimethyl-5,7-dihydro-3H-imidazo[4,5-f]indol-6-one], the IC50 amounted to 28 nM.

Regarding `CC1(C)C(=O)N(CCO[Si](C)(C)C(C)(C)C)c2cc3[nH]c(-c4n[nH]c5ccccc45)nc3cc21` [Example 28, 5-[2-(tert-Butyl-dimethyl-silanyloxy)-ethyl]-2-(1H-indazol-3-yl)-7,7-dimethyl-5,7-dihydro-3H-imidazo[4,5-f]indol-6-one], the IC50 was 1 to 100 nM.

As to `O=C1Nc2cc3nc(-c4n[nH]c5ccccc45)[nH]c3cc2C12CCCC2` [Example 9, 2-(1H-indazol-3-yl)-spiro[7,7-cyclopentan-5,7-dihydro-3H-imidazo[4,5-f]indol]-6-one], the IC50 lay within 100 to 250 nM.

Turning to `CC1C(=O)Nc2cc3[nH]c(-c4n[nH]c5ccccc45)nc3cc21` (stereo not drawn) [Example 11, 2-(1H-Indazol-3-yl)-7-methyl-5,7-dihydro-3H-imidazo[4,5-f]indol-6-one], the IC50 is 100 to 250 nM.

Regarding `C=CCN1C(=O)C(C)(C)c2cc3nc(-c4n[nH]c5ccccc45)[nH]c3cc21` [Example 2, 5-Allyl-2-(1H-indazol-3-yl)-7,7-dimethyl-5,7-dihydro-3H-imidazo[4,5-f]indol-6-one], the IC50 is 1 to 100 nM.

As for `CC1(C)C(=O)N(Cc2ccc(S(C)(=O)=O)cc2)c2cc3[nH]c(-c4n[nH]c5ccccc45)nc3cc21` [Example 27, 2-(1H-Indazol-3-yl)-5-(4-methanesulfonyl-benzyl)-7,7-dimethyl-5,7-dihydro-3H-imidazol[4,5-f]indol-6-one], the IC50 was in the range of 1 to 100 nM.

On to `C=CCCN1C(=O)C(C)(C)c2cc3nc(-c4n[nH]c5ccccc45)[nH]c3cc21` [Example 15, 5-But-3-enyl-2-(1H-indazol-3-yl)-7,7-dimethyl-5,7-dihydro-3H-imidazo[4,5-f]indol-6-one], for which the IC50 is 1 to 100 nM.

Consider `CC1(C)C(=O)N(CCCN2CCOCC2)c2cc3[nH]c(-c4n[nH]c5ccccc45)nc3cc21` [Example 7, 2-(1H-indazol-3-yl)-7,7-dimethyl-5-(3-morpholin-4-yl-propyl)-5,7-dihydro-3H-imidazo[4,5-f]indol-6-one], for which the IC50 turned out to be 14 nM.

On to `CC1(C)C(=O)N(CCO)c2cc3[nH]c(-c4n[nH]c5ccccc45)nc3cc21` [Example 34, 5-(2-Hydroxy-ethyl)-2-(1H-indazol-3-yl)-7,7-dimethyl-5,7-dihydro-3H-imidazo[4,5-f]indol-6-one], for which the IC50 lay within 1 to 100 nM.

As for `CCN1C(=O)C(C)(C)c2cc3nc(-c4n[nH]c5ccccc45)[nH]c3cc21` [Example 3, 5-Ethyl-2-(1H-indazol-3-yl)-7,7-dimethyl-5,7-dihydro-3H-imidazo[4,5-f]indol-6-one], the IC50 lay in the range of 1 to 100 nM.

With `CC1(C)C(=O)N(CC(=O)N2CCOCC2)c2cc3[nH]c(-c4n[nH]c5ccccc45)nc3cc21` [Example 40, 2-(1H-Indazol-3-yl)-7,7-dimethyl-5-(2-morpholin-4-yl-2-oxo-ethyl)-5,7-dihydro-3H-imidazo[4,5-f]indol-6-one], the IC50 fell in the range of 1 to 100 nM.

As for `CC1(C)C(=O)N(CC(=O)Nc2ccccc2)c2cc3[nH]c(-c4n[nH]c5ccccc45)nc3cc21` [Example 43, 2-[2-(1H-Indazol-3-yl)-7,7-dimethyl-6-oxo-6,7-dihydro-3H-imidazo[4,5-f]indol-5-yl]-N-phenyl-acetamide], the IC50 lay in the range of 1 to 100 nM.

For `CN(C)CCCN1C(=O)C(C)(C)c2cc3nc(-c4n[nH]c5ccccc45)[nH]c3cc21` [Example 21, 5-(3-Dimethylamino-propyl)-2-(1H-indazol-3-yl)-7,7-dimethyl-5,7-dihydro-3H-imidazo[4,5-f]indol-6-one], the IC50 lay within 1 to 100 nM.

`COCCOCCN1C(=O)C(C)(C)c2cc3nc(-c4n[nH]c5ccccc45)[nH]c3cc21` [Example 17, 2-(1H-Indazol-3-yl)-5-[2-(2-methoxy-ethoxy)-ethyl]-7,7-dimethyl-5,7-dihydro-3H-imidazo[4,5-f]indol-6-one]: the IC50 is 1 to 100 nM.

In the case of `CC1(C)C(=O)N(CC#N)c2cc3[nH]c(-c4n[nH]c5ccccc45)nc3cc21` [Example 24, [2-(1H-Indazol-3-yl)-7,7-dimethyl-6-oxo-6,7-dihydro-3H-imidazo[4,5-f]indol-5-yl]-acetonitrile], the IC50 lay in the range of 1 to 100 nM.

As to `CC1(C)C(=O)N(CC(=O)NCc2ccccc2)c2cc3[nH]c(-c4n[nH]c5ccccc45)nc3cc21` [Example 39, N-Benzyl-2-[2-(1H-indazol-3-yl)-7,7-dimethyl-6-oxo-6,7-dihydro-3H-imidazo[4,5-f]indol-5-yl]-acetamide], the IC50 is 1 to 100 nM.

Consider `CCCN1C(=O)C(C)(C)c2cc3nc(-c4n[nH]c5ccccc45)[nH]c3cc21` [Example 5, 2-(1H-indazol-3-yl)-7,7-dimethyl-5-propyl-5,7-dihydro-3H-imidazo[4,5-f]indol-6-one], for which the IC50 is 1 to 100 nM.

With `CC1(C)C(=O)N(CC(=O)NO)c2cc3[nH]c(-c4n[nH]c5ccccc45)nc3cc21` [Example 49, N-Hydroxy-2-[2-(1H-indazol-3-yl)-7,7-dimethyl-6-oxo-6,7-dihydro-3H-imidazo[4,5-f]indol-5-yl]-acetamide], the IC50 was 1 to 100 nM.

For the compound `CC1(C)C(=O)N(CC(O)CO)c2cc3[nH]c(-c4n[nH]c5ccccc45)nc3cc21` (stereo not drawn) [Example 35, 5-(2,3-Dihydroxy-propyl)-2-(1H-indazol-3-yl)-7,7-dimethyl-5,7-dihydro-3H-imidazo [4,5-f]indol-6-one], the IC50 was in the range of 1 to 100 nM.

For the compound `CC1(C)C(=O)N(Cc2ccccc2)c2cc3[nH]c(-c4n[nH]c5ccccc45)nc3cc21` [Example 26, 5-Benzyl-2-(1H-indazol-3-yl)-7,7-dimethyl-5,7-dihydro-3H-imidazo[4,5-f]indol-6-one], the IC50 is 100 to 250 nM.

Take `CCOC(=O)CN1C(=O)C(C)(C)c2cc3nc(-c4n[nH]c5ccccc45)[nH]c3cc21` [Example 23, [2-(1H-Indazol-3-yl)-7,7-dimethyl-6-oxo-6,7-dihydro-3H-imidazo[4,5-f]indol-5-yl]-acetic acid ethyl ester]: the IC50 was 1 to 100 nM.

Source of the values: patent publication US20060142247A1, “Tricyclic heterocycles” (priority 2004, published 2006).
